Results as given in patent US20200392158A1, “INHIBITORS OF LEUCINE RICH REPEAT KINASE 2” (GLAXOSMITHKLINE INTELLECTUAL PROPERTY DEVELOPMENT LIMITED, priority 2017, published 2020).

Target: T1, LRRK2 kinase in SH-SY5Y cells over-expressing recombinant full length LRRK2 (Homo sapiens, UniProt Q5S007)
T1 construct: A BacMam virus expressing full length recombinant LRRK2 was purchased from Invitrogen; host or cells: SH-SY5Y human neuroblastoma cells transduced with BacMam LRRK2 virus
Assay: Recombinant cellular LRRK2 AlphaScreen assay (LRRK2 Ser935 phosphorylation)
Type: cell-based
Conditions: 60 min
From the text: b. Recombinant Cellular LRRK2 AlphaScreen Assay
To determine the activity of compounds against LRRK2 kinase in cells, the observed LRRK2 kinase-dependent modulation of LRRK2 Ser 935 phosphorylation (Dzamko et al., 2010, Biochem. J. 430: 405-413) was utilized to develop a quantitative 384 well plate-based immunoassay of LRRK2 Ser935 phosphorylation in the human neuroblastoma cell line SH-SY5Y, engineered to over-express recombinant full length LRRK2 protein.
A BacMam virus expressing full length recombinant LRRK2 was purchased from Invitrogen and amplified by inoculation of SF-9 cells at MOI 0.3 for 4-5 days in Sf-900 III SFM medium supplemented with 3% fetal bovine serum. Infected cell cultures were then centrifuged at 2000 g for 20 minutes, viral supernatant titer determined by anti-gp64 plaque assay and stored at 4° C.
Affinity-purified anti-phospho LRRK2 Ser935 sheep polyclonal antibody (Dzamko et al., 2010, Biochem. J. 430: 405-413) was biotinylated by standard methods (PerkinElmer). Anti-LRRK2 rabbit polyclonal antibody was purchased from Novus Biologicals. AlphaScreen Protein A IgG Kit (including acceptor and donor beads) was purchased from Perkin Elmer.
SH-SY5Y cells were grown in DMEM/F12 medium with 10% dialysed fetal bovine serum and harvested by treatment with 0.5% trypsin-EDTA for 5 minutes at 37° C. followed by centrifugation at 1000 rpm for 4 minutes. The cell pellet was resuspended in Opti-MEM reduced serum media (Invitrogen) at 200,000 cells/ml and mixed with the BacMam LRRK2 virus at M01=50. 50 μl cell solutions were then dispensed to each well of a 384-well plate and incubated at 37° C., 5% CO2 for 24 hours.
Compounds were prepared at 10× final assay concentration as 11 point 1 in 4 serial I dilutions in Opti-MEM reduced serum medium (Invitrogen 31985070) containing 1% DMSO. On the day of assay, 5.5 μl of the compound solutions were transferred from the compound plate to the cell assay plate to achieve a top final assay concentration of 10 uM. DMSO (0.1% final assay concentration) was added to column 6 and 2-(benzyloxy)-5-methyl-4-(1-methyl-1H-pyrazol-4-yl)-N-(pyridin-3-yl)benzamide (2 μM final assay concentration) was added to column 18 to serve as 0% and 100% inhibition controls, respectively.
Cells were incubated at 37° C., 5% CO2 for 60 minutes. The medium was then removed and cells lysed by addition of 20 μl of cell lysis buffer (Cell Signaling Technology) and incubation at 4° C. for 20 minutes. 10 μl of antibody/acceptor bead mix [(1/1000 biotinylated-pS935 LRRK2 antibody, 1/1000 total-LRRK2 antibody, 1/100 Acceptor beads in AlphaScreen detection buffer (25 mM Hepes (pH 7.4), 0.5% Triton X-100, 1 mg/ml Dextran 500 and 0.1% BSA)] was then added to each well and plates incubated for 2 hours at ambient temperature in the dark. 10 μl of donor beads solution (1/33.3 donor beads in AlphaScreen detection buffer) was then added to each well. Following incubation for a further 2 hours at ambient temperature in the dark, plates were read on an EnVision™ plate reader at emission 520-620 nm with excitation 680 nm. Dose response curve data was based on a sigmoidal dose-response model.

T1 sequence (Q5S007 whole entry): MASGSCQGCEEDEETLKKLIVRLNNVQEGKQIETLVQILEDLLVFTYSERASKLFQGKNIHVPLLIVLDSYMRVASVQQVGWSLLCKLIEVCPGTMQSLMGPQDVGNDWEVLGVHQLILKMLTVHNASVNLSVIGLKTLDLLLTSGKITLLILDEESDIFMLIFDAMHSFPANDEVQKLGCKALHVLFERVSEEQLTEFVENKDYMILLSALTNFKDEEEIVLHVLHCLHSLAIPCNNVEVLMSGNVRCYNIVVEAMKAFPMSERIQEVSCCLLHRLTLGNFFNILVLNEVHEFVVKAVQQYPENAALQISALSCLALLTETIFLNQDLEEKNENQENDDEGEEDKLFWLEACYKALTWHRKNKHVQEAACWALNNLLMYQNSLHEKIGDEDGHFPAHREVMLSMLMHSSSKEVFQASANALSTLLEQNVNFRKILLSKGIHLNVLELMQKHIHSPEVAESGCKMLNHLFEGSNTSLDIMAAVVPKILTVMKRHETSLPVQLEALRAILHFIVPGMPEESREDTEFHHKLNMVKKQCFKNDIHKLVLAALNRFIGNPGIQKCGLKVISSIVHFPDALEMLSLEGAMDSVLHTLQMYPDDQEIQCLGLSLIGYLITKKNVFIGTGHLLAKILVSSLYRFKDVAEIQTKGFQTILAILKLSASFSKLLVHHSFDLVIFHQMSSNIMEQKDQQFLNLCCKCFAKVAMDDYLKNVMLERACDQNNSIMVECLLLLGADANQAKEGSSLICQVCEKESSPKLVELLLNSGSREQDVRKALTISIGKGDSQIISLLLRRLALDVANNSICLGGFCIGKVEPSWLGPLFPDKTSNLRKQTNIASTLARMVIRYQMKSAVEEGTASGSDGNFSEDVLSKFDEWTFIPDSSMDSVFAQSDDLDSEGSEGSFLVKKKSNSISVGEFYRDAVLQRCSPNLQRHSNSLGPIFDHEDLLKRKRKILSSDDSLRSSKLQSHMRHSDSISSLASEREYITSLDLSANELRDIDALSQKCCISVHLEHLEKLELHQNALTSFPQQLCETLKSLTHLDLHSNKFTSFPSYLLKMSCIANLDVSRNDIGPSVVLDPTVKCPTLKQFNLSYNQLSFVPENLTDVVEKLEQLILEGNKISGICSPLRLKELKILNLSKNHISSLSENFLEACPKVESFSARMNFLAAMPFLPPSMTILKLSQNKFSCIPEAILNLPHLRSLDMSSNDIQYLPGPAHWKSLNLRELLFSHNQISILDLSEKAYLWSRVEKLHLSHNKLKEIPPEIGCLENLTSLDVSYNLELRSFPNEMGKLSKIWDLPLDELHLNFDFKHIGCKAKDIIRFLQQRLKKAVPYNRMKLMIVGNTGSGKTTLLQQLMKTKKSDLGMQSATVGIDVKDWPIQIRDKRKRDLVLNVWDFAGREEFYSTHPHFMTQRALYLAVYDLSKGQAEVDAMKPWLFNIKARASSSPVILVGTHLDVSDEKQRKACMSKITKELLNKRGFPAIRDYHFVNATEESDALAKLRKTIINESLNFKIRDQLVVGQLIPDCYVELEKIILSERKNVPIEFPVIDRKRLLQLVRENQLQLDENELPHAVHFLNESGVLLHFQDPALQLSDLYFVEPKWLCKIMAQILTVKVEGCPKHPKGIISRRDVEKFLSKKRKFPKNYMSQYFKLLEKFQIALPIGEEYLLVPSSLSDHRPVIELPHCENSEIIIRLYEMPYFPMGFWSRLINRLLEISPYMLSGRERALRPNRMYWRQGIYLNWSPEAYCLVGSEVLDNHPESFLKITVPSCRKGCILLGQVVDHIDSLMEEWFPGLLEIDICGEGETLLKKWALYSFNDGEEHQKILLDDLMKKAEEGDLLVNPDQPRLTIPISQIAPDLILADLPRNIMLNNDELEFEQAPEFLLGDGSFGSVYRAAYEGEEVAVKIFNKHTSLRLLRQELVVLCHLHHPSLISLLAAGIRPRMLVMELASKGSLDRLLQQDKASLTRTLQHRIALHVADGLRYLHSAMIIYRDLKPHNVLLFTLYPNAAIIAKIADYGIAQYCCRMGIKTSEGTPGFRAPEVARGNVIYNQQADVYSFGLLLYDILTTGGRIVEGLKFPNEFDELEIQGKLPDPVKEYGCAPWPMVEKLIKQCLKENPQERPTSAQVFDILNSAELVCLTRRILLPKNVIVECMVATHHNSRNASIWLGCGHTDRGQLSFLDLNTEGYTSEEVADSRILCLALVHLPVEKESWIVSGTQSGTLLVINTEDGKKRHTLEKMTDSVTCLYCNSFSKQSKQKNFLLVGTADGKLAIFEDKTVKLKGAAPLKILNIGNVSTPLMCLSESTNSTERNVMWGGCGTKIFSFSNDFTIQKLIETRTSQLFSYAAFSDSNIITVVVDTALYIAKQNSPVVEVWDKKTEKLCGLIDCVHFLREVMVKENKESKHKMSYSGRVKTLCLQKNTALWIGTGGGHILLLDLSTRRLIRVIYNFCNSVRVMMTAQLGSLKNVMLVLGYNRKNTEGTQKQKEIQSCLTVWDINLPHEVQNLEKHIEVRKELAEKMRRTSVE

COC1CNc2nc(ncc2Cl)Nc2c(nn(CC(F)(F)F)c2C)OC1 (single isomer, unassigned) [E269, 14-Chloro-10-methoxy-4-methyl-5-(2,2,2-trifluoroethyl)-8-oxa-2,5,6,12,16,17-hexaazatricyclo[11.3.1.0^3,7] heptadeca-1(16),3,6,13 (17),14-pentaene]
IC50: ≤ 100 nM

Cc1c2c(nn1C1CCC(C(F)(F)F)CC1)OCCCNc1nc(ncc1Cl)N2 (single isomer, unassigned) [E276, 14-Chloro-4-methyl-5-[4-(trifluoromethyl)cyclohexyl]-8-oxa-2,5,6,12,16,17-hexaazatricyclo[11.3.1.0^3,7] heptadeca-1(16),3,6,13(17),14-pentaene]
IC50: ≤ 100 nM

Cc1c2c(nn1C1CCC(C(F)(F)F)CC1)OCCC(C)Nc1nc(ncc1Cl)N2 (single isomer, unassigned) [E281, 4-Chloro-4,11-dimethyl-5-[4-(trifluoromethyl)cyclohexyl]-8-oxa-2,5,6,12,16,17-hexaazatricyclo[11.3.1.0^3,7] heptadeca-1(16),3,6,13(17),14-pentaene]
IC50: ≤ 100 nM

Cc1c2c(nn1C1CCOCC1)OCC(OC(F)F)CNc1nc(ncc1Cl)N2 (single isomer, unassigned) [E284, 14-Chloro-10-(difluoromethoxy)-4-methyl-5-(oxan-4-yl)-8-oxa-2,5,6,12,16,17-hexaazatricyclo[11.3.1.0^3,7] heptadeca-1(16),3,6,13(17),14-pentaene]
IC50: ≤ 100 nM

Cc1c2c(nn1C1CCCOC1)OCCCNc1nc(ncc1Br)N2 (single isomer, unassigned) [E288, 14-Bromo-4-methyl-5-(oxan-3-yl)-8-oxa-2,5,6, 12,16,17-hexaazatricyclo[11.3.1.0^3,7]heptadeca-1(16),3,6,13(17), 14-pentaene]
IC50: ≤ 100 nM

Cc1c2c(nn1C1CC(N3CCC(F)(F)C3)C1)OCCC(C)Nc1nc(ncc1Cl)N2 (single isomer, unassigned) [E314, 14-Chloro-5-[3-(3,3-difluoropyrrolidin-1-yl)cyclobutyl]-4,11-dimethyl-8-oxa-2,5,6,12,16,17-hexaazatricyclo [11.3.1.0^3,7]-heptadeca-1(16),3,6,13(17),14-pentaene]
IC50: ≤ 100 nM

Cc1c2c(nn1C1COC1)OCC(F)CNc1nc(ncc1Cl)N2 (single isomer, unassigned) [E322, 14-Chloro-10-fluoro-4-methyl-5-(oxetan-3-yl)-8-oxa-2,5,6,12,16,17-hexaazatricyclo[11.3.1.0^3,7]heptadeca-1(16),3,6,13(17),14-pentaene]
IC50: ≤ 100 nM

Cc1c2c(nn1C1COCCC1F)OCC[C@@H](C)Nc1nc(ncc1Cl)N2 (single isomer, unassigned) [E325]
IC50: ≤ 100 nM

COC1COc2nc(ncc2Cl)Nc2c(nn(C3CCOCC3)c2C)OC1 (single isomer, unassigned) [E328, 14-Chloro-10-methoxy-4-methyl-5-(oxan-4-yl)-8,12-dioxa-2,5,6,16,17-pentaazatricyclo[11.3.1.0^3,7]heptadeca-1(16),3,6,13(17),14-pentaene]
IC50: ≤ 100 nM

Cc1c2c(nn1C1CCOCC1)OCCC(C)Oc1nc(ncc1Cl)N2 (single isomer, unassigned) [E330, 14-Chloro-4,11-dimethyl-5-(oxan-4-yl)-8,12-dioxa-2,5,6,16,17-pentaazatricyclo[11.3.1.0^3,7]heptadeca-1(17), 3,6,13,15-pentaene]
IC50: ≤ 100 nM

Cc1c2c(nn1C1CCOCC1F)OCC(F)CNc1nc(ncc1Cl)N2 (single isomer, unassigned) [E334, 14-Chloro-10-fluoro-5-(3-fluorooxan-4-yl)-4-methyl-8-oxa-2,5,6,12,16,17-hexaazatricyclo[11.3.1.0^3,7] heptadeca-1(16),3,6,13(17),14-pentaene]
IC50: ≤ 100 nM

COC1CNc2nc(ncc2Cl)Nc2c(nn(C3CCOCC3)c2Cl)OC1 (single isomer, unassigned) [E341, 4,14-Dichloro-10-methoxy-5-(oxan-4-yl)-8-oxa-2,5,6,12,16,17-hexaazatricyclo[11.3.1.0^3,7]heptadeca-1(16),3,6,13(17),14-pentaene]
IC50: ≤ 100 nM

Cc1c2c(nn1C1CCOCC1)OCCC(C)Nc1cc(ncc1Cl)N2 (single isomer, unassigned) [E345, 14-Chloro-4,11-dimethyl-5-(oxan-4-yl)-8-oxa-2,5,6,12,16-pentaazatricyclo[11.3.1.0^3,7]heptadeca-1(16),3,6,13 (17),14-pentaene]
IC50: ≤ 100 nM

Cc1c2c(nn1C1CCCOC1)OCCC(C)Nc1cc(ncc1Cl)N2 (single isomer, unassigned) [E346, 14-Chloro-4,11-dimethyl-5-(oxan-3-yl)-8-oxa-2,5,6,12,16-pentaazatricyclo[11.3.1.0^3,7]heptadeca-1(16),3,6,13 (17),14-pentaene]
IC50: ≤ 100 nM

Cc1c2c(nn1C1COCC(F)C1)OCCCNc1nc(ncc1Cl)N2 (single isomer, unassigned) [E371, 14-Chloro-5[5-fluorooxan-3-yl]-4-methyl-8-oxa-2,5,6,12,16,17-hexaazatricyclo[11.3.1.0^3,7]heptadeca-1(16),3,6, 13(17),14-pentaene]
IC50: ≤ 100 nM

Cc1c2c(nn1C1CCC(N3CCOCC3)CC1)OCCCNc1nc(ncc1Cl)N2 (single isomer, unassigned) [E380, 14-Chloro-4-methyl-5-[4-(morpholin-4-yl)cyclohexyl]-8-oxa-2,5,6,12,16,17-hexaazatricyclo [11.3.1.0^3,7]heptadeca-1(16),3,6,13(17),14-pentaene]
IC50: ≤ 100 nM

Cc1c2c(nn1C1CCN(C3CCOC3)CC1)OCC[C@@H](C)Nc1nc(ncc1Cl)N2 (single isomer, unassigned) [E383]
IC50: ≤ 100 nM

Cc1c2c(nn1C1CCOCC1(F)F)OCC[C@@H](C)Nc1nc(ncc1Cl)N2 (single isomer, unassigned) [E392]
IC50: ≤ 100 nM

Cc1c2c(nn1C1CN(C3COC3)CCC1(F)F)OCCCNc1nc(ncc1Cl)N2 (single isomer, unassigned) [E408, 14-Chloro-5-[4,4-difluoro-1-(oxetan-3-yl)piperidin-3-yl]-4-methyl-8-oxa-2,5,6,12,16,17-hexaazatricyclo[11.3.1.0^3,7]heptadeca-1(16),3,6,13(17),14-pentaene]
IC50: ≤ 100 nM

Cc1c2c(nn1C1CCOCC1C)OCCCNc1nc(ncc1Cl)N2 (single isomer, unassigned) [E412]
IC50: ≤ 100 nM

C[C@@H]1CCOc2nn(C3CN(C4COC4)CCC3(F)F)c(Cl)c2Nc2ncc(Cl)c(n2)N1 (single isomer, unassigned) [E442]
IC50: ≤ 100 nM

Cc1c2c(nn1C1CCOCC1C(F)(F)F)OCC[C@@H](C)Nc1nc(ncc1Cl)N2 (single isomer, unassigned) [E448]
IC50: ≤ 100 nM

COC1CNc2nc(ncc2Cl)Nc2c(nn(C3CCOCC3)c2C)OC1 (stereo not shown) [E2, 14-Chloro-10-methoxy-4-methyl-5-(oxan-4-yl)-8-oxa-2,5,6,12,16,17-hexaazatricyclo [11.3.1.0^3,7]heptadeca-1(16),3,6,13(17),14-pentaene]
IC50: ≤ 100 nM

Cc1c2c(nn1C1CCCOC1)OCCCNc1nc(ncc1Cl)N2 (stereo not shown) [E8, 14-Chloro-4-methyl-5-(oxan-3-yl)-8-oxa-2,5,6,12,16,17-hexaazatricyclo[11.3.1.0^3,7]heptadeca-1(16),3,6,13(17),14-pentaene]
IC50: ≤ 100 nM

N#Cc1c2c(nn1C1CCOCC1)OCCCNc1nc(ncc1Cl)N2 [E14, 14-Chloro-5-(oxan-4-yl)-8-oxa-2,5,6,12,16,17-hexaazatricyclo[11.3.1.0^3,7]heptadeca-1(16),3,6,13(17),14-pentaene-4-carbonitrile]
IC50: ≤ 100 nM
